Data taken from patent publication US7989587B2, “SSX-2 peptides presented by HLA class II molecules” (Ludwig Institute for Cancer Research Ltd., priority 1999, dated 2011).

Test system: SSX-2 specific CD4^+ T cells
Test: Intracellular IFN-γ staining of CD4+ T cells from patient LAU672 after stimulation with SSX-2 peptide submixtures or single peptides
Assay type: cell-based, human
Details: representative CD4+ T cell clone, FIG. 2A
Procedure: Generation of SSX-2 specific CD4^+ T cells. In vitro sensitization of CD4^+ T cells was carried out as described previously for CD8^+ T cells. Briefly, 1 to 2×10^6 CD4^+ T cells highly enriched from peripheral blood mononuclear cells (PBMC) by magnetic cell sorting using a miniMACS device (Miltenyi Biotec, Sunnyvale, Calif., USA) were stimulated with a mixture containing peptides spanning the entire SSX-2 protein sequence (Ayyoub et al, J Immunol 2002. 32:2292-2299) (2 μM each) in the presence of irradiated autologous cells from the CD4^− fraction in CTL medium containing rhIL-2 (10 U/ml) and IL-7 ([…]). The enriched CD4^+ T cells were cultured 2-3 weeks prior to being tested. CD4^+ T cells secreting cytokines in response to peptide stimulation were isolated by cytokine guided flow cytometry cell sorting using the cytokine secretion detection kit (Miltenyi Biotec) and cloned by limiting dilution culture in the presence of PHA (Sigma), allogenic irradiated PBMC and rhIL-2 as described (Valmori et al., 2001, Cancer Res. 61:501-512). Clones were subsequently expanded by periodic (3-4 weeks) stimulation under the same conditions.
As recombinant SSX-2 protein became available, we initiated a study to identify CD4^+ T cell epitopes. To that purpose, we prepared monocyte-derived dendritic cells (DC) from patient LAU672 by isolating CD 14+ monocytes from PBMC by magnetic cell sorting. The obtained population (containing >95% CD14^+ cells) was cultured in CTL medium containing 1,000 U/ml of rhGM-CSF and 1,000 U/ml of rhIL-4 during 6 days. At the end of the culture period, DC were incubated with recombinant SSX-2 protein for 12 hours and used to stimulate autologous CD4^+ T cells isolated from PBMC by magnetic cell sorting.
Two weeks after stimulation, culture aliquots were tested using either a pool containing all SSX-2 overlapping peptides or submixtures, each composed of 3 peptides (P1-3, P4-6 etc., FIG. 1). […]
The presence of specific CD4^+ T cells was monitored by intracellular staining with INF-γ specific antibodies (FIG. 1A). […]

In the case of “WEKMKASEKIFYVYMKRKYEAM (SSX-2 peptide) [SSX-2 37-58]”, the “reactivity to single peptides in the submixture P4-6” value was “active peptide”.
